Reference: patent US7045547B2, “Acyl-CoA dehydrogenase allenic inhibitors” (University of Delaware, priority 2002, dated 2006)
Where two headings read alike, the source gives them in different places. Values belong to the compound of their own block, whether it stands above or below them.

Columns and labels:
[1] = molecular target: T1, medium-chain acyl-CoA dehydrogenase (MC-CoA DH) (Sus scrofa, UniProt P41367); test: Kinetic stability of enzyme adducts (return of oxidized flavin absorbance at 446 nm); type: biochemical, pig; conditions: for rate constant of enzyme adduct decomposition: 1.6 equivalents racemic 3,4-dienoyl-CoA (0.8 equivalent R-isomer), 9.5 μM enzyme, pH 7.6; for enzyme adduct stability relative to the corresponding full length CoA-thioester: times more stable than the CoA adduct
T1 construct: medium-chain acyl-CoA dehydrogenase (MC-CoA DH) as purified from pig kidney; from tissue; host or cells: pig kidney
T1 sequence (P41367 26-421): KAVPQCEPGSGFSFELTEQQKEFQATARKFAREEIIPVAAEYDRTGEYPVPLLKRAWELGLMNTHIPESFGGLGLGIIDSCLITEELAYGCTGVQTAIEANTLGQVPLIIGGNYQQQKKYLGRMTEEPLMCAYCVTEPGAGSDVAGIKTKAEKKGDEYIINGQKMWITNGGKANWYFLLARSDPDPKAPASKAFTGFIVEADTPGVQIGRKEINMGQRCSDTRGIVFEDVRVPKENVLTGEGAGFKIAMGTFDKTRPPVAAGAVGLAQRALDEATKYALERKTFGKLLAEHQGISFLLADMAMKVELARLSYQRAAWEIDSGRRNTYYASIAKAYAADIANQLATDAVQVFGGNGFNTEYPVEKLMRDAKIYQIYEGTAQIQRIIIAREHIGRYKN
Excerpt: The reduced flavin adduct decomposes to the 2,4-conjugated diene with the return of the oxidized flavin absorbance spectrum. This isomerization provides a measure of the kinetic stability of each of the enzyme adducts formed. The dehydrogenase enzyme used in the stability testing of the inventive compounds was medium-chain acyl-CoA dehydrogenase (MC-CoA DH) as purified from pig kidney.
(§1) General Information: Medium chain acyl-CoA dehydrogenase was purified from pig kidney as described previously (33). Porcine liver esterase (EC 3.1.1.1), CoASH (lithium salt), D-pantethine, and 5,5′-dithio-bis(2-nitrobenzoic acid) were obtained from Sigma. E,E-2,4-octadienal and E,E-2,4-dodecadienal were from Alfa and K & K Laboratories respectively. […] Thorpe et al. in Biochemistry 1979, 18, 331–337. Unless otherwise stated, buffers were 50 mM potassium phosphate, pH 7.6, containing 0.3 mM EDTA, and experiments were conducted at 25° C. Assays of the medium chain dehydrogenase were as described previously, see C. Thorpe et al. in Anal. Biochem. 1990, 186, 280–284. Static and rapid-reaction spectrophotometry were performed as reported in C. Thorpe et al, in Biochemistry 1998, 37, 10469–10477.
A solution of acyl-CoA dehydrogenase (9.5 μM in 50 mM phosphate buffer, pH 7.6, 25° C.) is mixed with 1.6 equivalents of racemic 3,4-dienoyl-CoA derivatives (0.8 equivalent of R-isomer) containing 5, 6, 7, 8, 10, 12 and 15 carbon acyl chains. The return of oxidized flavin absorbance was monitored at 446 nm. A sub-stoichiometric amount (1.6 equivalents racemate: corresponding to 0.8 equivalent of the R-isomer) is used to avoid the lag phases encountered in the presence of excess inhibitor. The return of oxidized flavin absorbance is strongly chain length dependent.
Enzyme adduct stabilities with the medium-chain acyl-CoA dehydrogenase of R-(−)-3,4-decadienoyl-CoA, R-(−)-3,4-decadienoyl-pantetheine, and R-(−)-3,4-decadienoyl N-acetylcysteamine were compared. The dehydrogenase was incubated with 0.8 equivalents of the CoA, pantetheine and N-acetylcysteamine thioesters of R-(−)-3,4-decadienoic acid until maximal bleaching of the flavin chromophore was observed. The reappearance of the oxidized flavin chromophore was then followed at 25° C.

[2] = molecular target: T2, medium chain dehydrogenase (Sus scrofa, UniProt P41367); conditions: absence of displacing ligand; cited from earlier work
T2 sequence (P41367 26-421): T1 sequence (P41367 26-421)

[3] = molecular target: T3, medium chain acyl-CoA dehydrogenase (Sus scrofa, UniProt P41367); test: Spectral titration / inhibition of the dehydrogenase by allenic thioesters; type: biochemical, pig
T3 construct: medium-chain acyl-CoA dehydrogenase (MC-CoA DH) as purified from pig kidney; from tissue; host or cells: pig kidney
T3 sequence (P41367 26-421): T1 sequence (P41367 26-421)
Excerpt: See, Example 1. The (S)-enantiomer is rapidly isomerized to the trans-2,4-conjugated diene. […] These structural studies show a surprising, but relatively large, variation in the interaction between structurally similar inhibitors.
as §1
The spectral changes were completed rapidly before measurement could be made. Intermediate spectra are omitted for clarity. […] In FIG. 1C, the enzyme (5.06 μM in 50 mM phosphate buffer, pH 7.6, 25° C.; curve 1) was titrated with 2.53, 5.06, 36.4, 66.8, 109.3 μM of S-(+)-decadienoyl-CoA (curves 2–6, respectively). Intermediate spectra are omitted for clarity. The absorbance values at 446 nm are shown in the inset.

[4] = molecular target: T3, medium chain acyl-CoA dehydrogenase; test: Enzyme adduct formation: bleaching of the flavin chromophore at 446 nm (stopped-flow / conventional spectrophotometry); type: biochemical, pig; conditions: for rate constant of bleaching of the flavin chromophore at 446 nm: at 50 μM; for rate constant of bleaching of the flavin chromophore at 446 nm / limiting rate of flavin bleaching: 2° C.; for long wavelength band: compared with the CoA compound, pantetheine at 50 μM
Description: as §1
(§2) Bleaching of the flavin chromophore, followed at 446 nm, is relatively rapid for the pantetheine compound, but slow enough for a conventional spectrophotometer with the N-acetylcysteamine compound. At 50 μM, the rate constants are 30.9 s^−1, 7.5 s^−1, and 0.035 s^−1 for the CoA, pantetheine, N-acetylcysteamine compounds, respectively at 2° C. Limiting rates of 33 s^−1 and 55 s^−1 are obtained for CoA and pantetheine thioesters, respectively.
Dehydrogenase and R-(−)3,4-decadienoyl-CoA are mixed in the stopped-flow spectrophotometer at 2° C. to give final concentrations of 11 μM and 60 μM. The absorbance changes at 446 and 800 nm are shown in the inset of FIG. 2. As is observed with a number of diverse thioester substrates, such as butyryl-, octanoyl- and dihydrocinnamoyl-CoA, bleaching of the flavin at 446 nm is biphasic.
The absorbance changes were recorded in a 2 cm path-length cell after mixing dehydrogenase and R-(−)-thioester in the stopped flow spectrophotometer to give final concentrations of 5.5 and 30 μM respectively in 50 mM phosphate buffer, pH 7.6 at 2° C. […] Absorbance traces at a range of wavelengths were used to construct the spectrum of the intermediate species maximal at about 20 msec.

[5] = Solubility observation during rate measurements; type: physicochemical
Description: as §2

[6] = molecular target: T2, medium chain dehydrogenase; test: Competition studies with the substrate octanoyl-CoA; type: biochemical, pig; design: medium-chain acyl-CoA dehydrogenase (MC-CoA DH) as purified from pig kidney; from tissue; host or cells: pig kidney; conditions: 30 μM octanoyl-CoA, 3 nM dehydrogenase
Description: as §1
In competition studies with the substrate octanoyl-CoA, at a concentration of 30 μM, both the CoA and pantetheine analogs of the compounds of the invention are shown to be relatively strong reversible inhibitors of medium chain dehydrogenase. The assay studies included a dehydrogenase concentration of 3 nM. Compared to a control without inhibitor, 4.4 nM of the 3,4-decadienoyl-CoA analog decreased the rate to 50% within 1 minute.

Compound: CCC=C=CCC(=O)SCCNC(=O)CCNC(=O)[C@H](O)C(C)(C)COP(=O)(O)OP(=O)(O)OC[C@H]1O[C@@H](n2cnc3c(N)ncnc32)[C@H](O)[C@@H]1OP(=O)(O)O (racemic) [3,4-heptadienoyl-CoA]
- rate constant of enzyme adduct decomposition ([1]; 25° C.): 1.9 h⁻¹

Compound: CCCCCCCCCCC=C=CCC(=O)SCCNC(=O)CCNC(=O)[C@H](O)C(C)(C)COP(=O)(O)OP(=O)(O)OC[C@H]1O[C@@H](n2cnc3c(N)ncnc32)[C@H](O)[C@@H]1OP(=O)(O)O (racemic) [3,4-pentadecanedienoyl-CoA]
- rate constant of enzyme adduct decomposition ([1]; 25° C.): 0.27 h⁻¹

Compound: C=C=CCC(=O)SCCNC(=O)CCNC(=O)[C@H](O)C(C)(C)COP(=O)(O)OP(=O)(O)OC[C@H]1O[C@@H](n2cnc3c(N)ncnc32)[C@H](O)[C@@H]1OP(=O)(O)O [3,4-pentadienoyl-CoA, reference compound]
- half-life of reduced flavin adduct [2]: about 75 min
- rate constant of enzyme adduct decomposition ([1]; 25° C.): 1.6 h⁻¹

Compound: CCCC=C=CCC(=O)SCCNC(=O)CCNC(=O)[C@H](O)C(C)(C)COP(=O)(O)OP(=O)(O)OC[C@H]1O[C@@H](n2cnc3c(N)ncnc32)[C@H](O)[C@@H]1OP(=O)(O)O [(R)-3,4-octadienoyl-CoA]
- inhibition of the dehydrogenase [3]: potent inhibitor

Compound: CCCC=C=CCC(=O)SCCNC(=O)CCNC(=O)[C@H](O)C(C)(C)COP(=O)(O)OP(=O)(O)OC[C@H]1O[C@@H](n2cnc3c(N)ncnc32)[C@H](O)[C@@H]1OP(=O)(O)O (racemic) [3,4-octadienoyl-CoA]
- rate constant of enzyme adduct decomposition ([1]; 25° C.): 0.08 h⁻¹

Compound: CC=C=CCC(=O)SCCNC(=O)CCNC(=O)[C@H](O)C(C)(C)COP(=O)(O)OP(=O)(O)OC[C@H]1O[C@@H](n2cnc3c(N)ncnc32)[C@H](O)[C@@H]1OP(=O)(O)O (racemic) [3,4-hexadienoyl-CoA]
- rate constant of enzyme adduct decomposition ([1]; 25° C.): 8.7 h⁻¹

Compound: CCCCCC=C=CCC(=O)SCCNC(=O)CCNC(=O)[C@H](O)C(C)(C)CO [R-(−)-3,4-decadienoyl-pantetheine]
- limiting rate of flavin bleaching [4]: 55 s⁻¹
- rate constant of bleaching of the flavin chromophore at 446 nm [4]: 7.5 s⁻¹
- long wavelength band [4]: one quarter as intense
- enzyme adduct stability relative to the corresponding full length CoA-thioester [1]: ~9 times
- enzyme adduct stability relative to the corresponding full length CoA-thioester ([1]; listed as (R)-3,4-decadienoyl-pantetheine): 10 times

Compound: 3,4-decadienoyl pantetheine [3,4-decadienoyl-pantetheine]
- IC50 ([6]; read-out: concentration required to decrease the rate to 50% of control): 500 nM

Compound: CCCCCCCC=C=CCC(=O)SCCNC(=O)CCNC(=O)[C@H](O)C(C)(C)COP(=O)(O)OP(=O)(O)OC[C@H]1O[C@@H](n2cnc3c(N)ncnc32)[C@H](O)[C@@H]1OP(=O)(O)O (racemic) [3,4-dodecadienoyl-CoA]
- rate constant of enzyme adduct decomposition ([1]; 25° C.): 0.18 h⁻¹

The next lines start with results.

- rate constant of bleaching of the flavin chromophore at 446 nm [4]: 0.035 s⁻¹
- long wavelength band [4]: no long-wavelength band was observed
- solubility [5]: low solubility
- enzyme adduct stability relative to the corresponding full length CoA-thioester [1]: greater than 100 times
Compound: CCCCCC=C=CCC(=O)SCCNC(C)=O [R-(−)-3,4-decadienoyl-N-acetylcysteamine]
- regain of flavin absorbance (adduct stability in words) ([1]; 0.8 equivalents, 25° C.): no appreciable regain of the flavin absorbance after two days

- inhibition of the dehydrogenase [3]: relatively weak inhibitor
- flavin adduct formation ([3]; spectral titration): does not form a detectable flavin adduct
Compound: CCCCCC=C=CCC(=O)SCCNC(=O)CCNC(=O)[C@H](O)C(C)(C)COP(=O)(O)OP(=O)(O)OC[C@H]1O[C@@H](n2cnc3c(N)ncnc32)[C@H](O)[C@@H]1OP(=O)(O)O [S-(+)-3,4-decadienoyl-CoA]

- inhibition of the dehydrogenase [3]: very little, if any, inhibition
Compound: CCCC=C=CCC(=O)SCCNC(=O)CCNC(=O)[C@H](O)C(C)(C)COP(=O)(O)OP(=O)(O)OC[C@H]1O[C@@H](n2cnc3c(N)ncnc32)[C@H](O)[C@@H]1OP(=O)(O)O [(S)-3,4-octadienoyl-CoA]

- IC50 ([6]; within 1 minute, read-out: concentration that decreased the rate to 50% of control): 4.4 nM
- rate constant of enzyme adduct decomposition ([1]; 25° C.): 0.12 h⁻¹
Compound: decadienoyl-CoA

- limiting rate of flavin bleaching [4]: 33 s⁻¹
- rate constant of bleaching of the flavin chromophore at 446 nm [4]: 30.9 s⁻¹
- stoichiometry of bleaching at 446 nm ([3]; 9.6 μM enzyme, pH 7.6, 25° C., FIG. 1B inset): 0.95 equivalents
Compound: CCCCCC=C=CCC(=O)SCCNC(=O)CCNC(=O)[C@H](O)C(C)(C)COP(=O)(O)OP(=O)(O)OC[C@H]1O[C@@H](n2cnc3c(N)ncnc32)[C@H](O)[C@@H]1OP(=O)(O)O [R-(−)-3,4-decadienoyl-CoA]
